This is an account of results in patent publication US20180271110A1, “REDUCTION OF MICROBIAL ACTIVITY AND METHOD OF PROCESSING ANIMAL AND POULTRY PRODUCTS” (Zee Company, priority 2017, published 2018).

Test [1] concerns Salmonella Enterica serovar enteriditis (SE). Nature of the test: Antimicrobial efficacy of DCDMH vs DBDMH on Salmonella-contaminated chicken legs and beef cubes (15 s agitation in solution). The format is cell-based. To be noted: for log Reduction Ave.: 15 s agitation, 15 s drip. The procedure:
In the following working example, a study was conducted to compare the antimicrobial efficacy of 1,3,-dichloro-5,5,-dimethylhydantoin (DCDMH) and 1,3,-dibromo-5,5,-dimethylhydantoin (DBDMH) at 200 ppm available chlorine on both chicken and beef test substrates. For sample preparation, chicken legs and beef cubes obtained from a local grocery store were used to conduct the following tests. Prior to exposure of the test substrates to the antimicrobial solutions having DCDMH or DBDMH, the test substrates were exposed for two hours in 300 mL of broth of Salmonella Enterica serovar enteriditis (SE), which had been grown to a concentration of >6 log 10 in Nutrient Broth for 2 h at 35° C. Following exposure, the test substrates were removed from the Nutrient Broth and allowed to drain and air dry for about 30 minutes at ambient room temperature before testing began.
1. The following solutions were prepared and distributed in 200 mL aliquots into Ziploc bags:
a. 200 ppm available chlorine solutions derived from DCDMH distributed it into an appropriate number of Ziploc bags;
b. FSIS new buffer solution containing Lecithin and Sodium thiosulfate (LST) into an appropriate number of Ziploc bags;
c. Phosphate Buffer Solution (PBS) into an appropriate number of Ziploc bags.
2. Into each bag of DCDMH solution, a Salmonella-contaminated test substrate was placed and agitated manually for 15 s. The test substrate was removed from the bag, allowed to drip for 15 s, then placed into a Ziploc bag containing 200 mL LST. The bag was then vigorously shaken for 45 s to neutralize the DCDMH and to release SE from the surface of the chicken leg.
3. After the bags were shaken, 100 μL from each of the shaken bags was removed and dispensed into test tubes containing 9.9 mL of DI HOH. The contents of these tubes were used for serial dilution.
4. As controls, a prepared test substrate was inserted into each of two bags of PBS and agitated manually for 15 s. The substrate was removed from the bag and placed directly into a Ziploc bag containing 200 mL LST. The bag was vigorously shaken for 45 s to release SE from the surface of the substrate.
5. Repeat Step 3 with the control solutions.
6. Serially dilute the contents of the test tubes from Step 3 above. Plate 100 μL aliquots on Salmonella-Shigella Agar (SSA), then incubate for 18-24 h at 35° C. Enumerate colonies that have black centers (presumptive SE) after incubation.
7. Repeat the entire protocol replacing the DCDMH solution with […] solution in Step 1.a.

Test [2] shares this test system. The procedure:
In the following working example, a study was conducted to compare the antimicrobial efficacy of 1,3,-dichloro-5,5,-dimethylhydantoin (DCDMH) at various concentrations (100 ppm, 200 ppm, and 400 ppm) on beef test substrates from beef brisket and beef liver. For sample preparation, beef brisket and beef liver were cubed to have approximately […] of exposed surface. Prior to exposure of the test substrates to the antimicrobial solutions having DCDMH, the test substrates were incubated for two hours in 300 mL of broth of Salmonella Enterica serovar enteriditis (SE), which had been grown to a concentration of >6 log 10 in Nutrient Broth for 2 h at 35° C. Following exposure, the test substrates were removed from the Nutrient Broth and allowed to drain and air dry for about 30 minutes at ambient room temperature before testing began. The test was replicated 10 times for each concentration and two controls. The concentration of DCDMH was then tested on the exposed test substrates using spray and dip applications.
1. A test substrate cube was suspended on a stainless steel hook and the antimicrobial solution was atomized onto the cube to thoroughly cover all sides until solution was dripping from the test substrate cube, which was for about 5 to about 10 seconds;
2. The test substrate cube was allowed to drip for about 10 to about 50 seconds (to obtain total antimicrobial contact times of about 15 to about 60 seconds when combined with the exposure in step 1 above).
3. The test substrate cube was then placed in a Ziploc bag containing 100 mL of LST solution to neutralize any residual antimicrobial chemistry;
(§1) 4. The Ziploc bag containing the test substrate cube was then vigorously shaken for about for 45 seconds to release bacterial cells from the surface of the meat into the LST solution;
(§2) 5. A 100 μL aliquot of LST solution from the bag was injected into 9.9 mL of sterile phosphate buffer solution;
(§3) 6. The LST solution was serially diluted, then plated on Salmonella Shigella agar and incubated for 24 h prior to counting presumptive positive Salmonella colonies;
(§4) 7. This procedure was repeated at each concentration of DCDMH;
8. For controls, 2 cubes of each test substrate were treated as in steps 1-2 above, except the control substrate cubes were atomized with sterile deionized water in step 1 above. And then steps 2-6 of the process above were continued.
1. A test substrate cube was placed in a Ziploc bag containing 100 mL of the antimicrobial solution and allowed to remain in the solution for about 15 to about 30 seconds under gentle manual agitation;
2. The test substrate cube was removed from the test solution using sterile forceps and allowed to drip for about 0 to about 30 seconds (to obtain total antimicrobial contact times of about 15 to about 60 seconds when combined with the exposure in step 1 above);
8. For controls, 2 cubes of each test substrate were treated as in steps 1-2 above, except the control substrate cubes were placed in 100 mL Ziploc bags of phosphate buffer solution in step 1 above. And then steps 2-6 of the process above were continued.

Test [3] has the same test system. How it is done:
In the following working example, a study was conducted to compare the antimicrobial efficacy of 1,3,-dichloro-5,5,-dimethylhydantoin (DCDMH) at various concentrations (50 ppm, 100 ppm, and 200 ppm) on chicken test substrates, namely, chicken legs and chicken liver. Prior to exposure of the test substrates to the antimicrobial solutions having DCDMH, the test substrates were incubated for two hours in 1000 mL of broth of Salmonella Enterica serovar enteriditis (SE), which had been grown to a concentration of >6 log 10 in Nutrient Broth for 2 h at 35° C. Following exposure, the test substrates were removed from the Nutrient Broth and allowed to drain and air dry for about 30 minutes at ambient room temperature before testing began. The test was replicated 10 times for each concentration and two controls. The concentration of DCDMH was then tested on the exposed test substrates using spray and dip applications.
1. A test poultry product (e.g., chicken leg or chicken liver) was suspended on a stainless steel hook in a spray cabinet and sprayed until the part was drenched with antimicrobial solution, which was for about 5 to about 10 seconds;
2. The test poultry product was allowed to drip for about 10 to about 50 seconds (to obtain total antimicrobial contact times of about 15 to about 60 seconds when combined with the exposure in step 1 above);
3. The test poultry product was then placed in a Ziploc bag containing 200 mL of LST solution to neutralize any residual antimicrobial chemistry;
4. The Ziploc bag containing the test poultry product was then vigorously shaken for about for 45 seconds to release bacterial cells from the surface of the poultry product into the LST solution;
as §2
6. The LST solution was serially diluted, then plated on Salmonella Shigella agar and incubated for 24-36 hours prior to counting presumptive positive Salmonella colonies;
as §4
8. For controls, 2 poultry legs and 2 poultry livers for the corresponding test were treated as in steps 1-2 above, except the control poultry products were drenched with sterile deionized water in step 1 above. And then steps 2-6 of the process above were continued.
1. A test poultry product was placed in a Ziploc bag containing 200 mL of the antimicrobial solution and allowed to remain in the solution for about 15 to about 30 seconds under gentle manual agitation;
2. The test poultry product was removed from the test solution using sterile forceps and allowed to drip for about 0 to about 30 seconds (to obtain total antimicrobial contact times of about 15 to about 60 seconds when combined with the exposure in step 1 above);
3. The test poultry product was then placed in a Ziploc bag containing 200 mL broth of LST solution to neutralize any residual antimicrobial chemistry;
as §1, §3
8. For controls, 2 poultry legs and 2 poultry liver for each test were treated as in steps 1-2 above, except the test substrate cubes were placed in 200 mL Ziploc bags of phosphate buffer solution in step 1 above. And then steps 2-6 of the process above were continued.
This is another data set of the same source.

Setting [4] is: beef test substrate, 200 ppm available chlorine.
Where [5] appears, read: chicken test substrate, 200 ppm available chlorine.

Like-named read-outs stand apart in the source and are kept apart here. Some results are limits rather than exact numbers.

`CC1(C)C(=O)N(Br)C(=O)N1Br` [DBDMH, 1,3,-dibromo-5,5,-dimethylhydantoin, reference compound]: the “log Reduction Ave.” value in test [1] (setting [4]) amounted to 0.15 log; in test [1] (setting [5]) it was 0.29 log.
As to `CC1(C)C(=O)N(Cl)C(=O)N1Cl` [DCDMH, 1,3,-dichloro-5,5,-dimethylhydantoin], the “Ave. Log Reduction” value in test [2] (Beef Liver, Active Cl 100 ppm, Dip, 60 seconds) stood at 0.90 log; in test [2] (Beef Liver, Active Cl 200 ppm, Spray, 30 seconds) it was 1.01 log; in test [2] (Beef Liver, Active Cl 400 ppm, Dip, 15 seconds) it was 1.11 log; in test [2] (Beef Muscle, Active Cl 100 ppm, Dip, 60 seconds) it was 0.89 log; in test [2] (Beef Muscle, Active Cl 200 ppm, Spray, 30 seconds), 0.91 log; in test [2] (Beef Muscle, Active Cl 400 ppm, Dip, 15 seconds) it was 1.18 log. The “Ave. Log Reduction” value in test [3] (Chicken Leg, Active Cl 50 ppm, Dip, 60 seconds) was determined as 0.78 log; in test [3] (Chicken Leg, Active Cl 100 ppm, Spray, 30 seconds), 0.86 log; in test [3] (Chicken Leg, Active Cl 200 ppm, Dip, 15 seconds) it was 1.22 log; in test [3] (Chicken Liver, Active Cl 50 ppm, Dip, 60 seconds), 0.69 log; in test [3] (Chicken Liver, Active Cl 100 ppm, Spray, 30 seconds), 0.72 log; in test [3] (Chicken Liver, Active Cl 200 ppm, Dip, 15 seconds) it was 1.07 log. Further, the “antimicrobial efficacy against S. Enteritidis” value in test [2] (about 100 ppm to about 400 ppm, dip or spray application, beef substrates) is given as “great antimicrobial efficacy”; in test [3] (about 50 ppm to about 200 ppm, dip or spray application, poultry products), “great antimicrobial efficacy”. Further, the “anticipated efficacy (log reduction) under normal in-plant use conditions” value in test [2] (normal in-plant use conditions, about 100 to about 400 ppm, dip or spray, anticipated) is on record as more than 1 log; in test [3] (normal in-plant use conditions, about 50 to about 200 ppm, dip or spray, anticipated) it was more than 1 log; in test [1] (normal in-plant use conditions, anticipated), more than 1 log. Besides, the “antimicrobial efficacy against S. Enteritidis compared with DBDMH” value in test [1] (200 ppm available chlorine, chicken and beef, short contact time) was “substantially greater antimicrobial efficacy”. The “log Reduction Ave.” value worked out at 0.51 log in test [1] (setting [4]) and 0.64 log in test [1] (setting [5]).
